The subject of this experiment is uric acid value of mouse serum. Briefly: Lowering of Uric Acid Value of Mouse Serum. It is filed as in vivo. The note with it: male ICR mice, 0.3 mg/kg into the stomach. The method, then: Lowering of Uric Acid Value of Mouse Serum
A sample suspended in 0.5% aqueous hydroxypropyl methyl cellulose (HPMC) solution was forcibly administered into the stomach of 4 to 6 week-old male ICR mice (4 per group) in a dose of 0.3 mg/kg using an oral sound probe. At 2 and 6 hours after the administration of the sample, mice were anesthetized with halothane. Blood samples were taken from both carotid arteries and the mice were exsanguinated. The blood was stood at room temperature for 20-30 minutes and centrifuged at 2000×g for 15 minutes to give serum. The uric acid value was measured using a uric acid measurement kit (manufactured by Wako Pure Chemicals Co.) by phosphotungstic acid method. The obtained values were applied to the following formula to give uric acid value decrease percentage at 2 and 6 hours after the administration of the sample.
Uric acid value decrease (%)=(1-average uric acid value of group administered with sample/average uric acid value of group administered with HPMC)×100

As to `Oc1ncnc2[nH]ncc12` [allopurinol], under “2 hours after administration”, the “Uric acid value decrease (%) at 2 hours” value is reported as 33%. The “Uric acid value decrease (%) at 6 hours” value (6 hours after administration) was found to be 14%.

Source of the values: patent US6015829A, “1-phenylpyrazole compounds and medicinal application thereof” (Yoshitomi Pharmaceutical Industries, ltd., priority 1996, dated 2000).
